Literature values as cited in patent publication US11406658B2, “Composition comprising glycyrrhizin and cosmetic and pharmaceutical uses thereof” (ATG 20 S.R.L., priority 2018, dated 2022).

Columns and labels:
[1] = background art
[2] = oral administration; background art

SMILES	solubility [1]	bioavailability [2]
CC1(C)[C@@H](O[C@H]2O[C@H](C(=O)O)[C@@H](O)[C@H](O)[C@H]2O[C@@H]2O[C@H](C(=O)O)[C@@H](O)[C@H](O)[C@H]2O)CC[C@]2(C)[C@H]3C(=O)C=C4[C@@H]5C[C@@](C)(C(=O)O)CC[C@]5(C)CC[C@@]4(C)[C@]3(C)CC[C@@H]12.N [(mono)ammonium salt, (mono) ammonium glycyrrhizate]	soluble in diluted acidic or basic solutions	–
CC1(C)[C@@H](O[C@H]2OC(C(=O)O)[C@@H](O)C(O)C2O[C@H]2OC(C(=O)O)[C@@H](O)C(O)C2O)CC[C@]2(C)[C@H]3C(=O)C=C4[C@@H]5C[C@@](C)(C(=O)O)CC[C@]5(C)CC[C@@]4(C)[C@]3(C)CC[C@@H]12 (stereo partly shown) [Glycyrrhizin]	not particularly water-soluble	extremely low
CC1(C)[C@@H](O[C@H]2OC(C(=O)[O-])[C@@H](O)C(O)C2O[C@H]2OC(C(=O)[O-])[C@@H](O)C(O)C2O)CC[C@]2(C)[C@H]3C(=O)C=C4[C@@H]5C[C@@](C)(C(=O)O)CC[C@]5(C)CC[C@@]4(C)[C@]3(C)CC[C@@H]12.[K+].[K+] (stereo partly shown) [potassium salt, dipotassium glycyrrhizate]	water-soluble	–
